{"source": "ChEMBL document CHEMBL4118122", "about": "“Identification and biological evaluation of thiazole-based inverse agonists of RORγt” (Bioorg Med Chem Lett, 2018)", "key": {"[1]": {"target": "Adrenergic receptor alpha-2 (Rattus norvegicus, UniProt P22086+P19328+P22909)", "assay": "Displacement of [3H]-RX 821002 from rat alpha2 adrenoceptor after 60 mins by scintillation counting analysis", "assay_type": "protein assay"}, "Cytochrome P450 2C8": {"target": "T1, Cytochrome P450 2C8 (Homo sapiens, UniProt P10632)", "T1 sequence (P10632 whole entry)": "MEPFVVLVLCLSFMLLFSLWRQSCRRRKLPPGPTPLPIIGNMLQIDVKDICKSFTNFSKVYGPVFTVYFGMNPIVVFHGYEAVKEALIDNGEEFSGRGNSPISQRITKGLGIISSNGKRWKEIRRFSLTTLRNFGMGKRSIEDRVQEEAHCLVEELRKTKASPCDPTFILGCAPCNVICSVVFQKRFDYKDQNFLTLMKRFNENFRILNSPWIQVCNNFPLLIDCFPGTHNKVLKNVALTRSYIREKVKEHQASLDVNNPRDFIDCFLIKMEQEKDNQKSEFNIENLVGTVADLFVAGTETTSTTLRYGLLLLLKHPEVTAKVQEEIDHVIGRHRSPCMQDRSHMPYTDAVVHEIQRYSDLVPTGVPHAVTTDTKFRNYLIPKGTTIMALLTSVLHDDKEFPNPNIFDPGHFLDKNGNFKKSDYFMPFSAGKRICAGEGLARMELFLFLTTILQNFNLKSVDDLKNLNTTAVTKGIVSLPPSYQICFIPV", "assay": "Inhibition of CYP2C8 (unknown origin)", "assay_type": "ADME"}, "Homo sapiens": {"organism": "Homo sapiens", "assay": "Binding affinity to GABA-gated chloride channel (unknown origin) at 1 uM by antagonist radioligand binding assay relative to control"}, "[2]": {"target": "Serine/threonine-protein kinase Nek2 (Homo sapiens) (UniProt P51955)", "assay": "Inhibition of recombinant full length His-tagged human NEK2 expressed in baculovirus expression system at 10 uM in presence of ATP relative to control"}, "[3]": {"target": "T2, 5-hydroxytryptamine receptor 2A (Homo sapiens, UniProt P28223)", "T2 sequence (P28223 whole entry)": "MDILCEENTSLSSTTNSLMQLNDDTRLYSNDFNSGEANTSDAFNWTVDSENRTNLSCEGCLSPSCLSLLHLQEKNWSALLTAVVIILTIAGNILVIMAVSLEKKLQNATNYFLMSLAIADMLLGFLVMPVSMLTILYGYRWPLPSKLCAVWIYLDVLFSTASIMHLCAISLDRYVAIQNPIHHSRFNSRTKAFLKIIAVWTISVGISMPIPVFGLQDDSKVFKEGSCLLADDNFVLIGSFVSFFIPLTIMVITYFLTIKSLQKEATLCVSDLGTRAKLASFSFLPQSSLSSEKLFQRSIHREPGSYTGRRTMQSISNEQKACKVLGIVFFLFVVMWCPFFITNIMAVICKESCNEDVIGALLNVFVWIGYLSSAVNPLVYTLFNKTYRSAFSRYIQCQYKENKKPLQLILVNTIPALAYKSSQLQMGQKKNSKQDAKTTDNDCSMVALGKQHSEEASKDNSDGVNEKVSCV", "assay": "Displacement of [3H]ketanserin human recombinant 5-HT2A receptor at 10 uM after 60 mins by scintillation counting analysis relative to control"}, "[4]": {"assay": "Half life in rat microsomes", "assay_type": "ADME, Microsome"}, "[5]": {"target": "T3, Adrenergic receptor alpha-2 (Rattus norvegicus) (UniProt P22086+P19328+P22909)", "assay": "Displacement of [3H]-RX 821002 from rat alpha2 adrenoceptor at 10 uM after 60 mins by scintillation counting analysis relative to control", "assay_type": "protein assay"}, "[6]": {"target": "5-hydroxytryptamine receptor 7 (Homo sapiens, UniProt P34969)", "sequence (P34969 whole entry)": "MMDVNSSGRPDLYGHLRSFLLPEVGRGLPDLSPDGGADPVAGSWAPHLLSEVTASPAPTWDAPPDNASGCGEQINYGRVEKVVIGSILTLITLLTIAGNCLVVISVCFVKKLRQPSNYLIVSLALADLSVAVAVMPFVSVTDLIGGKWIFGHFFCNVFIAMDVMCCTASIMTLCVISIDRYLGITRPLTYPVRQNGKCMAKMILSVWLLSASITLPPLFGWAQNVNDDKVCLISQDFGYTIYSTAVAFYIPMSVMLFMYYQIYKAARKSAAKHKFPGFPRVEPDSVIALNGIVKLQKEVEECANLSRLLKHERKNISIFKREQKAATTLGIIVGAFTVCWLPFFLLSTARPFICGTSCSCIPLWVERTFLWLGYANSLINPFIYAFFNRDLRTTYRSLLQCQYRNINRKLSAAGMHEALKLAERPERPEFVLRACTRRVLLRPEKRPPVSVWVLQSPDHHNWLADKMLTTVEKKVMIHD", "assay": "Displacement of [3H]LSD from human recombinant 5-HT7 receptor at 10 uM after 120 mins by scintillation counting analysis relative to control"}, "[7]": {"target": "Galanin receptor type 2 (Homo sapiens) (UniProt O43603)", "sequence (O43603 whole entry)": "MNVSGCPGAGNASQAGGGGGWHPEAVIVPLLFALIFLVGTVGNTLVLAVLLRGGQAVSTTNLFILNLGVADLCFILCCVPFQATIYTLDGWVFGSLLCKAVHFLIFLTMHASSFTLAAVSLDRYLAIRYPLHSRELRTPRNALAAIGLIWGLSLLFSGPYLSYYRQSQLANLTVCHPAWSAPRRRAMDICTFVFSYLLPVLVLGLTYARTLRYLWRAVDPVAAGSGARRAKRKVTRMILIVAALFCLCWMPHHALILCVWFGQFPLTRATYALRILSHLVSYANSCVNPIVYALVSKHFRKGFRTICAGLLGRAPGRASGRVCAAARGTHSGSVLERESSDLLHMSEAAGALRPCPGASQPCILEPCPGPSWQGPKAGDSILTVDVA", "assay": "Displacement of [125I]-endothelin-1 from human recombinant GAL2 receptor at 1 uM after 120 mins by scintillation counting analysis relative to control"}, "[8]": {"target": "Adenosine receptor A1 (Homo sapiens) (UniProt P30542)", "assay": "Displacement of [3H]-DPCPX from human recombinant adenosine A1 receptor at 1 uM after 60 mins by scintillation counting analysis relative to control"}, "[9]": {"target": "Cholecystokinin receptor type A (Homo sapiens) (UniProt P32238)", "assay": "Displacement of [125I]CCK-8s from human recombinant CCK1 receptor at 1 uM after 60 mins by scintillation counting analysis relative to control"}, "Endothelin-1 receptor": {"target": "Endothelin-1 receptor (Homo sapiens, UniProt P25101)", "sequence (P25101 whole entry)": "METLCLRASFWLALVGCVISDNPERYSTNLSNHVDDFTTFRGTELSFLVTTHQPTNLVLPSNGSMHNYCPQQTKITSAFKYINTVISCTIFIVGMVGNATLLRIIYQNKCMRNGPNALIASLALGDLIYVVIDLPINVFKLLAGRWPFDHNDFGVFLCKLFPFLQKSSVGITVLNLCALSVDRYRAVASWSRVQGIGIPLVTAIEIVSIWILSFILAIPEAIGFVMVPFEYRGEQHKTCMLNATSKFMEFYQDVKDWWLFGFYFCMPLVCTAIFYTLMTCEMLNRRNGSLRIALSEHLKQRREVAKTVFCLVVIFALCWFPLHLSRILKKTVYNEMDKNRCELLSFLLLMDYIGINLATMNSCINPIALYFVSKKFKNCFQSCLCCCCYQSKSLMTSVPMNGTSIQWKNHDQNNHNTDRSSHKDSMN", "assay": "Displacement of [125I]-endothelin-1 from human recombinant ETA receptor after 120 mins by scintillation counting analysis"}, "[10]": {"target": "T2, 5-hydroxytryptamine receptor 2A", "assay": "Displacement of [3H]ketanserin human recombinant 5-HT2A receptor after 60 mins by scintillation counting analysis"}, "[11]": {"target": "Aurora kinase B (Homo sapiens) (UniProt Q96GD4)", "sequence (Q96GD4 whole entry)": "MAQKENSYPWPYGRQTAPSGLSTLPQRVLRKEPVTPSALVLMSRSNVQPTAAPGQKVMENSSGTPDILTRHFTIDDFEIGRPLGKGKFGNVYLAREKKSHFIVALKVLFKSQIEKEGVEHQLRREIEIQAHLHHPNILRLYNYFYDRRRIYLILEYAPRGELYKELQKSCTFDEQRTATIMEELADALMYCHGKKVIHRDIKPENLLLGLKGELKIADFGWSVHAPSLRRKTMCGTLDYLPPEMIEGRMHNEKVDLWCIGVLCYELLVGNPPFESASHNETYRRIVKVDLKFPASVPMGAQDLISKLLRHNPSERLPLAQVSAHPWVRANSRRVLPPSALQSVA", "assay": "Inhibition of recombinant full length His-tagged human Aurora B expressed in baculovirus expression system at 10 uM in presence of ATP relative to control"}, "[12]": {"target": "Serine/threonine-protein kinase pim-2 (Homo sapiens) (UniProt Q9P1W9)", "sequence (Q9P1W9 whole entry, looked up)": "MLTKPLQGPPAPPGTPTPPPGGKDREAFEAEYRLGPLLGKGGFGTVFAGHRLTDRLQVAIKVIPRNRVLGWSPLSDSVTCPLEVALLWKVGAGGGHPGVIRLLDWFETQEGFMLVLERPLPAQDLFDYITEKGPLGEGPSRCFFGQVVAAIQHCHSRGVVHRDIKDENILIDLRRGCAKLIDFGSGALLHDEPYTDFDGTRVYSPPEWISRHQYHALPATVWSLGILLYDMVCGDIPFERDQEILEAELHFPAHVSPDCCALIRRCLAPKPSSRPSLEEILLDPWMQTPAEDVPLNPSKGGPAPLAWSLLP", "assay": "Inhibition of recombinant full length GST-tagged human PIM2 expressed in baculovirus expression system at 10 uM in presence of ATP relative to control"}, "[13]": {"target": "T3, Adrenergic receptor alpha-2 (Rattus norvegicus)", "assay": "Displacement of [3H]-RX 821002 from rat alpha2 adrenoceptor at 1 uM after 60 mins by scintillation counting analysis relative to control", "assay_type": "protein assay"}, "[14]": {"target": "Calcium/calmodulin-dependent protein kinase type II subunit alpha (Homo sapiens) (UniProt Q9UQM7)", "assay": "Inhibition of CamK2alpha (unknown origin) at 10 uM in presence of ATP relative to control"}, "D(2) dopamine receptor": {"target": "D(2) dopamine receptor (Homo sapiens, UniProt P14416)", "assay": "Displacement of [3H]7-OH-DPAT from human recombinant dopamine D2S receptor at 10 uM after 60 mins by scintillation counting analysis relative to control"}, "[15]": {"target": "Fibroblast growth factor receptor 1 (Homo sapiens) (UniProt P11362)", "sequence (P11362 22-822 limits assumed)": "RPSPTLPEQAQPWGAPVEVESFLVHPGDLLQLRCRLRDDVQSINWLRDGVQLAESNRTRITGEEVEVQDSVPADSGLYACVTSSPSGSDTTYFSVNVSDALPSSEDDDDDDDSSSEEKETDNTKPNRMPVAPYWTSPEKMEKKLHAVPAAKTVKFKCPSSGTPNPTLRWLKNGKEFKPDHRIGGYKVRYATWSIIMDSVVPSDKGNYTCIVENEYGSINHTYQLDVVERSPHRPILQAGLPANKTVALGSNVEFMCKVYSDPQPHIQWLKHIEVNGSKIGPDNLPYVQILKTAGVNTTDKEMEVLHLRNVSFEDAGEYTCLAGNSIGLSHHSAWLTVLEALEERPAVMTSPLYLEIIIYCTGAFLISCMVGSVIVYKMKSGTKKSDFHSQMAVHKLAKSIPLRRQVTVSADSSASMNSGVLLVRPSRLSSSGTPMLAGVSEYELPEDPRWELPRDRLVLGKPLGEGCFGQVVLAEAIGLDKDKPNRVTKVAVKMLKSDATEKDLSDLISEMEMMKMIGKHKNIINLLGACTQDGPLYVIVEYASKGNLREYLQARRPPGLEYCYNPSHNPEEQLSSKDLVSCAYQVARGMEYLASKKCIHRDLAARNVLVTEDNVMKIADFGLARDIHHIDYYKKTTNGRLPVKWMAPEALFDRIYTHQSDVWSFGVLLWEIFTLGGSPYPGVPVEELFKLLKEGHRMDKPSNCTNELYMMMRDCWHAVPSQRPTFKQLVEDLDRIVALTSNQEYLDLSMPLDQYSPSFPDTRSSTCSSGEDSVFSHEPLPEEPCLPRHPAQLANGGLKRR", "assay": "Inhibition of recombinant His-tagged human FGFR1 cytoplasmic domain expressed in baculovirus expression system at 10 uM in presence of ATP relative to control"}, "[16]": {"target": "Delta-type opioid receptor (Homo sapiens, UniProt P41143)", "sequence (P41143 whole entry)": "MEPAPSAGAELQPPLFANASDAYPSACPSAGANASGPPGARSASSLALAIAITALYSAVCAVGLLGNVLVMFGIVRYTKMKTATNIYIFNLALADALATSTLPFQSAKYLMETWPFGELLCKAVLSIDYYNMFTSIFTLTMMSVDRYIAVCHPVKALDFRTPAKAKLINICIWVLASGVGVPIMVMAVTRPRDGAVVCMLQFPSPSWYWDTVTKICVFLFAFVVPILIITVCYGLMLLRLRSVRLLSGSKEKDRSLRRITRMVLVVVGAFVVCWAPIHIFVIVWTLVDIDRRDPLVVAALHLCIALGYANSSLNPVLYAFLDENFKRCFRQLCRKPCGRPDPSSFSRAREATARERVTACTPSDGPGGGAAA", "assay": "Displacement of [3H]DADLE from human recombinant delta opioid receptor at 1 uM after 60 mins by scintillation counting analysis relative to control"}, "[17]": {"target": "Type-1 angiotensin II receptor (Homo sapiens) (UniProt P30556)", "assay": "Displacement of [125I][Sar1,Ile8]-AT-II from human recombinant AT1 receptor at 10 uM after 120 mins by scintillation counting analysis relative to control"}, "[18]": {"target": "C-C chemokine receptor type 1 (Homo sapiens, UniProt P32246)", "sequence (P32246 whole entry)": "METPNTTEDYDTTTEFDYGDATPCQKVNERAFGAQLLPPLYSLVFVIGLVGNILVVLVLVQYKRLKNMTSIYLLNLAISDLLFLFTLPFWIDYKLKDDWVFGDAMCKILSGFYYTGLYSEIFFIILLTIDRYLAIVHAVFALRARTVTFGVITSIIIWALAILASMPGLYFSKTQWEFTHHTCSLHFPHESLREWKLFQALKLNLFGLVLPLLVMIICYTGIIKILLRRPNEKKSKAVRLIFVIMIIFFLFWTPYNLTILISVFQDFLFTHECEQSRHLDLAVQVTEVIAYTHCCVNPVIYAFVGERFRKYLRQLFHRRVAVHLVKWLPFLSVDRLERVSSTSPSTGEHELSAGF", "assay": "Displacement of [125I]MIP-1alpha from human recombinant CCR1 receptor after 120 mins by scintillation counting analysis"}, "[19]": {"target": "C-X-C chemokine receptor type 2 (Homo sapiens) (UniProt P25025)", "assay": "Displacement of [125I]IL-8 from human recombinant CXCR2 receptor at 10 uM after 60 mins by scintillation counting analysis relative to control"}, "[20]": {"target": "Muscarinic acetylcholine receptor M3 (Homo sapiens, UniProt P20309)", "sequence (P20309 whole entry, looked up)": "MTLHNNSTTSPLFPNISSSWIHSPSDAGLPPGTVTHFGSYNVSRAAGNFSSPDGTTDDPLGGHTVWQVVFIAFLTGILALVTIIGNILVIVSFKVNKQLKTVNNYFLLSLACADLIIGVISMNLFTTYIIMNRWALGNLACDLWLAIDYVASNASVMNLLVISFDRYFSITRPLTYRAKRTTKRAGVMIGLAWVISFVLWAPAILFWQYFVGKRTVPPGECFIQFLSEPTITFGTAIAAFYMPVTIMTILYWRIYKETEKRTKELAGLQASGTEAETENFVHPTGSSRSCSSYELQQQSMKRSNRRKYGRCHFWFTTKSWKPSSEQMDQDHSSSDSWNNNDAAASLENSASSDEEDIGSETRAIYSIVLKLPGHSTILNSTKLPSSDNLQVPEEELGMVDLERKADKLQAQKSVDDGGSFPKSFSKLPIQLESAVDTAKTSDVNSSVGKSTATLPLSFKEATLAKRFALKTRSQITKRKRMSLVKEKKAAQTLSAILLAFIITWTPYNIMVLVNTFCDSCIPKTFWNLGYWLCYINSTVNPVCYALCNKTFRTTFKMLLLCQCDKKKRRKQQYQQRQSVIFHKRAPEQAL", "assay": "Displacement of [3H]4-DAMP from human recombinant M3 receptor at 10 uM after 60 mins by scintillation counting analysis relative to control"}, "[21]": {"target": "Cholecystokinin receptor type A (Homo sapiens, UniProt P32238)", "assay": "Displacement of [125I]CCK-8s from human recombinant CCK1 receptor after 60 mins by scintillation counting analysis"}, "[22]": {"target": "Somatostatin receptor (Mus musculus) (UniProt P30935+O08858+P30875+P30873+P49660)", "assay": "Displacement of [125I]Tyr11-somatostatin-14 from mouse SST receptor at 1 uM after 60 mins by scintillation counting analysis relative to control", "assay_type": "protein assay"}, "Melanocortin receptor 4": {"target": "Melanocortin receptor 4 (Homo sapiens, UniProt P32245)", "sequence (P32245 whole entry)": "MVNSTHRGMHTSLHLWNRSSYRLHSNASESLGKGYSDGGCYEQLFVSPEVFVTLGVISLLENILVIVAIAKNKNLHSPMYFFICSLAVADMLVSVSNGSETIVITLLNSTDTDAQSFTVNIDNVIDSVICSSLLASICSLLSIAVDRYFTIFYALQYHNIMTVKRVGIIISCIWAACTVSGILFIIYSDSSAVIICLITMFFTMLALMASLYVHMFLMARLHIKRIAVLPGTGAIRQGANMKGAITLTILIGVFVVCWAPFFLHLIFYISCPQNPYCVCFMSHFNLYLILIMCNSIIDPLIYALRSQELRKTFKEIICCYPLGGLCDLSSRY", "assay": "Displacement of [125I]NDP-alpha -MSH from human recombinant MC4 receptor after 120 mins by scintillation counting analysis"}, "[23]": {"target": "Serine/threonine-protein kinase Chk2 (Homo sapiens) (UniProt O96017)", "assay": "Inhibition of recombinant full length His-tagged human CHK2 expressed in baculovirus expression system at 10 uM in presence of ATP relative to control"}}, "note": "pIC50: −log10 of the molar value.", "data": [{"smiles": "CC(C)(C)NS(=O)(=O)c1ccc(-c2sc(C(=O)N[C@H]3C[C@H](C(=O)O)C3)nc2CC2CCCCC2)c2ccccc12", "values": [{"measurement": "IC50", "setting": "[1]", "result": 43, "unit": "nM"}, {"measurement": "INH", "setting": "Cytochrome P450 2C8", "result": 3.8, "unit": "µM"}, {"measurement": "inhibition", "setting": "Homo sapiens", "result": 14, "unit": "%"}, {"measurement": "inhibition", "setting": "[2]", "result": -6, "unit": "%"}, {"measurement": "inhibition", "setting": "[3]", "result": "< 10", "unit": "%"}, {"measurement": "half-life", "setting": "[4]", "result": 47, "unit": "min"}, {"measurement": "inhibition", "setting": "[5]", "result": "< 10", "unit": "%"}, {"measurement": "inhibition", "setting": "[6]", "result": 10, "unit": "%"}, {"measurement": "inhibition", "setting": "[7]", "result": "< 10", "unit": "%"}, {"measurement": "inhibition", "setting": "[8]", "result": "< 10", "unit": "%"}, {"measurement": "inhibition", "setting": "[9]", "result": "< 10", "unit": "%"}, {"measurement": "pIC50", "setting": "Endothelin-1 receptor", "result": 10.64}, {"measurement": "pIC50", "setting": "[10]", "result": 9.19}, {"measurement": "inhibition", "setting": "[11]", "result": 8, "unit": "%"}, {"measurement": "inhibition", "setting": "[12]", "result": 4, "unit": "%"}, {"measurement": "inhibition", "setting": "[13]", "result": "< 10", "unit": "%"}, {"measurement": "inhibition", "setting": "[14]", "result": 2, "unit": "%"}, {"measurement": "inhibition", "setting": "D(2) dopamine receptor", "result": 19, "unit": "%"}, {"measurement": "inhibition", "setting": "[15]", "result": 2, "unit": "%"}, {"measurement": "inhibition", "setting": "[16]", "result": 12, "unit": "%"}, {"measurement": "inhibition", "setting": "[17]", "result": "< 10", "unit": "%"}, {"measurement": "pIC50", "setting": "[18]", "result": 10.09}, {"measurement": "inhibition", "setting": "[19]", "result": 24, "unit": "%"}, {"measurement": "inhibition", "setting": "[20]", "result": 23, "unit": "%"}, {"measurement": "pIC50", "setting": "[21]", "result": 9.92}, {"measurement": "inhibition", "setting": "[22]", "result": "< 10", "unit": "%"}, {"measurement": "pIC50", "setting": "Melanocortin receptor 4", "result": 9.68}, {"measurement": "inhibition", "setting": "[23]", "result": -1, "unit": "%"}]}]}
